The nature of this data set: Human HepG2 cell viability assay in 384 well format. It counts as toxicity, cell-based. More on the design: dose 125 nL, time 70.5 hour; concentration not given beside the values. As to conditions: HepG2 cells, read-out: Inhibition.
Consider `N#Cc1ccc(C(=O)O)nc1/C=C/c1cccc(Cl)c1`, for which the cytotoxicity at 70.5 h is 7.88%. With `CCC(CC)(CCO)CNC(=O)c1ccon1` the figure was -8.6%. For `O=C(COc1ccccc1)NCC1CC1`, the cytotoxicity at 70.5 h came to 9.36%. On to `CCc1nnc(C2Cc3ccccc3CN2Cc2ncc(Cl)n2C)o1` (stereo not drawn), for which the cytotoxicity at 70.5 h is -6.23%. With `Cc1cc(CN2CCc3cncnc3C2)no1` the figure was -8.98%. With `Oc1cccc(C2CN(c3nnc(C4CC4)s3)CCO2)c1` (stereo not drawn) the figure was -4.99%; with `CC(C)CCn1ccc(NC(=O)N2CCCC2C(C)(C)O)n1` (stereo not drawn), -6.63%. With `CCc1nc(CN2CCCN(CC(=O)N3CCOCC3)CC2)no1` the figure was 41.7%. As for `Cc1c(C(C)NC(=O)C2CCCC2)cnn1C` (stereo not drawn), the cytotoxicity at 70.5 h was 36.2%. `Cc1c(C(C)NC(=O)N2CCN(C3CCCC3)CC2)cnn1C` (stereo not drawn): the cytotoxicity at 70.5 h is 54.3%. Regarding `CCCNC(=O)CCNC(=O)c1sc2ccc(F)cc2c1C`, the cytotoxicity at 70.5 h was found to be 31.9%.

In the case of `N#Cc1ccc(CN2C(=O)c3ccccc3CS2(=O)=O)c(F)c1`, the cytotoxicity at 70.5 h came to 2.45%.

Turning to `CC(=O)NCCCNC(=O)Nc1ccccc1-n1nc(C)cc1C`, the cytotoxicity at 70.5 h came to 0.874%.

As for `Cc1c(C(=O)NCCCC(N)=O)sc2ccc(F)cc12`, the cytotoxicity at 70.5 h came to 25.3%. With `Cc1nc2n(n1)CC(Nc1ccnc(-c3ccccc3)n1)CC2` (stereo not drawn) the figure was -6.55%; with `CCCc1nnc(NC(=O)NC(CCO)c2cccs2)s1` (stereo not drawn), -3.88%; with `Cc1cnc(NC(=O)NC(CCO)c2cccs2)s1` (stereo not drawn), -3.17%.

In the case of `CCCn1nc2c(cc1=O)CN(C(C)C(=O)Nc1nccs1)CC2` (stereo not drawn), the cytotoxicity at 70.5 h worked out at 4.51%. As to `CC(C)Cc1nnc(NC(=O)NC(CCO)c2cccs2)s1` (stereo not drawn), the cytotoxicity at 70.5 h is -3.34%.

With `CC(C(=O)Nc1ccnn1C(C)C)N1CCc2nn(C)c(=O)cc2C1` (stereo not drawn), the cytotoxicity at 70.5 h was found to be 4.22%. As to `OCC1(NCc2cnc(-c3cccs3)s2)CCOCC1`, the cytotoxicity at 70.5 h is -6.15%. Next, `CN(C(=O)NCc1nccn1Cc1ccccc1)C1CC1`: 9.16%; `OCC1(NCc2cnc(-c3ccsc3)s2)CCOCC1`: -6.13%; `COc1ccc(CC(=O)NC2(C#N)CCOCC2)c(Cl)c1`: 3.22%.

On to `O=C(NCc1nccn1CCc1ccccc1)NCC1CCC1`, for which the cytotoxicity at 70.5 h stood at 2.35%. For the molecule `COc1ccc(C)cc1CC(=O)NC1(C#N)CCOCC1`, the cytotoxicity at 70.5 h was determined as 29.1%. In the case of `Cc1cnc(CN2CC=C(c3c[nH]c4ncccc34)CC2)o1`, the cytotoxicity at 70.5 h is 5.53%. Next, `O=C(NCC1(CO)CC1)NC(c1nccs1)C1CC1` (stereo not drawn): -3.86%.

Regarding `Cc1noc(CN(Cc2cccc(C#N)c2)Cc2cccs2)n1`, the cytotoxicity at 70.5 h was 0.497%.

For `N#Cc1cccc(OCCN2CCCC2C(=O)N2CCSCC2)c1` (stereo not drawn), the cytotoxicity at 70.5 h was 3.62%.

Regarding `Cc1occc1CNC(=O)C1CCN(C(=O)OC(C)(C)C)C1` (stereo not drawn), the cytotoxicity at 70.5 h is -0.732%. With `CC(C(=O)Nc1ccc(Cl)cn1)N1CCc2nn(C)c(=O)cc2C1` (stereo not drawn) the figure was -2.78%; with `Cc1cnc(C(NC(=O)NCC2(CO)CC2)C2CC2)s1` (stereo not drawn), 2.13%. `O=C(c1cccc(F)c1Cl)N(CCO)CC1CC1`: the cytotoxicity at 70.5 h was -1.98%. With `NC(=O)c1ccc(N2CCCCC2)c(NC(=O)c2ccc(F)cc2Cl)c1` the figure was 3.11%; with `CCNC(=O)C1CCN(Cn2nc(-c3ccccc3)oc2=O)CC1`, -1.22%; with `O=c1oc(-c2ccccc2)nn1CN1CCC(N2CCCCC2)CC1`, 24.3%. Next, `O=C(CCCn1cncn1)NC1(c2ccc(Cl)cc2)CCC1`: -1.83%; `Cc1ccc(CN(C)C(=O)CN2CCCC2Cn2cncn2)cc1` (stereo not drawn): -3.7%; `CN(Cc1ccccc1)C(=O)CN1CCCCC1Cn1cncn1` (stereo not drawn): 1.47%. With `O=C(NC1CCC(C(=O)N2CCSCC2)CC1)N1CCC1` (stereo not drawn) the figure was -6.98%; with `CN(Cc1cnn(C)c1)C(=O)CN1CCCCC1Cn1cncn1` (stereo not drawn), -7.41%. For `CC(C)c1nc(CNC2CCCN(c3cccnn3)C2)no1` (stereo not drawn), the cytotoxicity at 70.5 h came to 21%. Consider `NC(=O)c1ccc(N2CCCCC2)c(NC(=O)c2cc(F)ccc2F)c1`, for which the cytotoxicity at 70.5 h is -4.2%. Take `CCNC(=O)Cc1c(C)nc2c(c1C)c(=O)[nH]n2C`: the cytotoxicity at 70.5 h was -5.26%. With `c1cnnc(N2CCCC(NCc3nc(-c4ccsc4)no3)C2)c1` (stereo not drawn) the figure was -0.51%. As to `COC(=O)[C@H](C)NC(=O)Cc1c(C)nc2c(c1C)c(=O)[nH]n2C`, the cytotoxicity at 70.5 h was -2.82%. Next, `c1ccc(-c2noc(CNC3CCCN(c4cccnn4)C3)n2)nc1` (stereo not drawn): 0.881%. For `Cc1cccc(C2(NC(=O)CCCn3cncn3)CCCC2)c1`, the cytotoxicity at 70.5 h is -5.53%.

Turning to `O=C(CCCn1cncn1)NC1(c2cccc(Br)c2)CC1`, the cytotoxicity at 70.5 h worked out at 4.56%. Next, `CC(C)(C)OC(=O)N1CCCc2ccc(NCc3ccon3)cc21`: -4.98%; `CC(C)c1ocnc1C(=O)NC1(c2cccc(F)c2)CCOCC1`: -3.27%. With `O=C(C1CC1)N1CCC(Oc2ccccc2Cl)CC1`, the cytotoxicity at 70.5 h came to 20.6%.

In the case of `CC(C)C1CN(C(=O)c2cccs2)CCS1` (stereo not drawn), the cytotoxicity at 70.5 h was -4.53%. Next, `CCN(Cc1ccccc1)C(=O)CN1CCCCC1Cn1cncn1` (stereo not drawn): -6.76%; `Cc1cc(NC(=O)C(c2cccc(F)c2)N2CCOCC2)sn1` (stereo not drawn): 8.13%. Next, `O=C(NCCN1CCOCC1)N(CCCO)C1CCCc2ccccc21` (stereo not drawn): -2.32%. With `CC(C)C(=O)N1CCN(Cc2csc(-c3ccccn3)n2)CC1` the figure was -7.7%; with `COc1cc(NC(=O)c2ccc(C)c(F)c2)c(C(=O)N(C)C)cc1OC`, -12.5%.

With `Cc1ccc(S(=O)(=O)Nc2ccc(-n3cccc3C(=O)O)c(C)c2)cc1`, the cytotoxicity at 70.5 h is -6.38%. As for `CCC(CC)C(=O)NCc1cn2cc(Br)ccc2n1`, the cytotoxicity at 70.5 h is -8.77%. With `COc1c(Br)cccc1CCNC(=O)c1ncoc1C` the figure was 9.9%; with `CN(Cc1ccccn1)C(=O)c1ccc2c(c1O)OC(C)(C)C2`, 11.6%. With `Cc1oc(-c2ccc(Cl)cc2)nc1C(=O)NC1=NCCS1` the figure was 11.2%. With `CC(c1ccccc1)N(C)C(=O)CN1CCCc2cc(F)cc(F)c21` (stereo not drawn), the cytotoxicity at 70.5 h is 12.8%. As to `O=C(CNc1cc(Br)ccc1Br)NC1CCS(=O)(=O)C1` (stereo not drawn), the cytotoxicity at 70.5 h was -14.1%.

As for `Cc1oc(-c2ccccc2)nc1CC(=O)NC1=NCCS1`, the cytotoxicity at 70.5 h was -11%. Next, `NC(=O)C1CCN(CC(=O)N2CCCC2c2ccsc2)CC1` (stereo not drawn): -4.16%.

Regarding `Cc1nnc2n1CCN(C(=O)CN1C(=O)C(C)Oc3ccccc31)C2` (stereo not drawn), the cytotoxicity at 70.5 h was -7.32%. With `Clc1cncc(NCc2cccc(COC3CCOCC3)c2)n1` the figure was -6.08%; with `CS(=O)(=O)CCCOc1cccc(-n2cccn2)c1`, 12.8%. With `CCN1CCN(S(=O)(=O)c2c[nH]c(C(C)C)n2)c2ccccc21` the figure was -5.4%; with `CC(C)Cc1noc(COc2ccc(N(C)C(N)=O)cc2)n1`, -6.27%; with `Clc1cnccc1NCc1cccc(COC2CCOCC2)c1`, -0.494%.

Take `O=C(C1CCCOC1)N1CCc2ccc(F)cc21` (stereo not drawn): the cytotoxicity at 70.5 h turned out to be 1.26%.

In the case of `Cc1noc(C)c1CNc1ccc2nc(C3CC3)sc2c1`, the cytotoxicity at 70.5 h was -1.96%.

For `O=C1CC2(CCSC2)C(=O)N1Cc1ncc(-c2ccccc2)o1` (stereo not drawn), the cytotoxicity at 70.5 h is -2.34%. With `O=C(CC(F)(F)F)NC(c1ccc(Cl)cc1)c1ncon1` (stereo not drawn) the figure was -3.08%; with `CN(Cc1nnc(C2CC2)o1)C(c1ccc(F)cc1)c1cccnc1` (stereo not drawn), 0.0755%; with `CC(C)CC(C(=O)N(C)Cc1ncnn1C)N1CCCCC1=O` (stereo not drawn), -2.2%.

Turning to `CC(CCNC(=O)N1CCC1)N(C)C(=O)OC(C)(C)C` (stereo not drawn), the cytotoxicity at 70.5 h was -0.749%.

On to `O=C(c1ncoc1-c1ccco1)N(Cc1ccco1)CC1CCCO1` (stereo not drawn), for which the cytotoxicity at 70.5 h was -3.69%.

In the case of `Cc1ccc(CNCc2c[nH]nc2C(C)(C)C)c(OC2CCOC2)c1` (stereo not drawn), the cytotoxicity at 70.5 h is -5.05%. Next, `CC(C)NC(=O)CN(C)CC(=O)/N=c1/cc[nH]n1C(C)C1CC1` (stereo not drawn): 34.2%; `COc1c(C)cnc(CNC(=O)CCOCC(C)C)c1C`: -4.31%. With `CC(C)Cn1ncc2cc(C(=O)N(C)CCc3ccccc3)cnc21` the figure was -8.96%; with `Cc1occc1C(=O)N1CCC(C(O)c2ccc(F)cc2)CC1` (stereo not drawn), -4.29%; with `CC(C1CC1)n1nccc1NC(=O)CN(C)C(=O)OC(C)(C)C` (stereo not drawn), 27.9%. Next, `Cc1nc(CNc2ncc(Br)cn2)n[nH]1`: -5.62%; `CC(C)C(C)N(C(=O)c1cc2c([nH]c1=O)CCCC2=O)C1CC1` (stereo not drawn): -7.9%. Regarding `CS(=O)(=O)N1CCOC2(CCCC2)C1`, the cytotoxicity at 70.5 h is -5.25%. With `O=c1[nH]nc(CNc2ncc(Br)cn2)[nH]1` the figure was -2.47%. Consider `OCCCNC1CCc2cc3c(cc21)OCCO3` (stereo not drawn), for which the cytotoxicity at 70.5 h was -4.1%. On to `CC(=O)N(C)CCc1nc(-c2cc(C(N)=O)co2)cs1`, for which the cytotoxicity at 70.5 h is -6.25%. With `CC(C)c1cccc(-n2cc(O)c(C(N)=O)n2)c1` the figure was 25.8%; with `CC(C)CCN(C)C(=O)c1cnc2c(cnn2CC(C)C)c1`, 1.58%; with `CC1CCCN(S(=O)(=O)N2CCOC3(CCCC3)C2)C1` (stereo not drawn), 10.1%. With `Cc1cc(CNC(=O)c2cc(C(C)C)n(C)n2)ccc1S(C)(=O)=O` the figure was -8.39%; with `COCCN(CCN(C)C)C(=O)NC1CCc2ccccc2C1` (stereo not drawn), -5.75%; with `O=S(=O)(c1cccnc1)N1CCN(CC(O)c2ccccc2)CC1` (stereo not drawn), -3.21%.

Consider `NC(=O)NC(CC(=O)NCCc1cccc(F)c1)c1cccs1` (stereo not drawn), for which the cytotoxicity at 70.5 h amounted to 17%. For the molecule `Cc1cc(NC(=O)CN(CC(C)O)c2ccccc2)on1` (stereo not drawn), the cytotoxicity at 70.5 h is -3.15%.

As to `CC(=O)NCCSCCOc1cccc(Br)c1`, the cytotoxicity at 70.5 h came to 17.6%.

The values are drawn from ChEMBL document CHEMBL3507680, “University of Dundee, Gates Library screen for HepG2 cell viability”.
